Data on two compounds can be found in patent US8334248B2, “Aqueous solution of olanexidine, method of preparing the aqueous solution, and disinfectant” (Otsuka Pharmaceutical Co., Ltd., priority 2003, dated 2012).

This data set in a line: Solubility in water. In kind it is physicochemical. The text has this: Olanexidine has very poor solubility in water, and hitherto known salts of olanexidine are also poorly soluble in water. […] Consequently, sufficient bactericidal activity cannot be expected of an aqueous solution merely having olanexidine dissolved therein, and moreover, depending on the conditions the olanexidine may precipitate out.

With `CCCCCCCCNC(=N)NC(=N)NCc1ccc(Cl)c(Cl)c1` [free olanexidine, 1-(3,4-dichlorobenzyl)-5-octylbiguanide], the “solubility in water relative to olanexidine hydrochloride” value (compared with less than 0.05% (W/V) of the hydrochloride) was “a further order of magnitude less than this”.

As for `CCCCCCCCN=C(N)NC(N)=NCc1ccc(Cl)c(Cl)c1.Cl` [olanexidine hydrochloride], the solubility in water entry (at 0° C.) is “less than 0.05 % (W/V)”.
